According to patent US11028087B2, “2,6-disubstituted-9-cyclopentyl-9H-purines, use thereof as medicaments, and pharmaceutical compositions” (UNIVERZITA PALACKEHO V OLOMOUCI, priority 2017, dated 2021):

Columns and labels:
[1] = target: T1, CDK2/Cyclin E (Homo sapiens, UniProt P24941); assay: Kinase inhibition assay with [γ-33P]ATP; format: biochemical; settings: histone H1, 15 μM ATP; read-out: IC50 values (μM) CDK2
T1 construct: made in house; host or cells: Sf9 insect cells, baculoviral infection
Procedure: (§1) CDK1/Cyclin B and CDK2/Cyclin E kinases were produced in Sf9 insect cells via baculoviral infection and purified on a NiNTA column (Qiagen). CDK5/p35 and CDK7Cyclin H/MAT1, FLT3 WT, FLT3-ITD and FLT3 D835 were purchased from ProQinase GmbH. The kinase reactions were assayed with 1 mg/mL histone H1 (for CDK1, CDK2 and CDK5), (YSPTSPS)2KK peptide (for CDK7) or AGLT substrate (for FLT3) in the presence of 15/15/0.15/1.5/1 μM ATP (for CDK1/CDK2/CDK5/CDK7/FLT3), 0.05 μCi [γ-^33P]ATP and of the test compound in a final volume of 10 μL, all in a reaction buffer (60 mM HEPES-NaOH, pH 7.5, 3 mM MgCl2, 3 mM MnCl2, 3 μM Na-orthovanadate, 1.2 mM DTT, 2.5 μg/50 μl PEG20,000). The reactions were stopped by adding 5 μL of 3% aq H3PO4. Aliquots were spotted onto P-81 phosphocellulose (Whatman), washed 3× with 0.5% aq H3PO4 and finally air-dried.

[2] = test system: EOL-1 (eosinophilic leukaemia, carrying the fusion FIP1L1-PDGFRA); assay: Calcein AM cytotoxicity assay; format: cell-based; settings: Homo sapiens, EOL1, 72 h; EOL-1; Calcein AM, three days; read-out: EC50 values (μM) EOL-1
From the text: (§2) Cytotoxicity of the compounds is the major property determining their anticancer effect in vivo. One of the parameters used, as the basis for cytotoxicity assays, is the integrity of cytoplasmic membrane of viable cells. For example, a microtiter assay, which uses acetomethoxy derivate of calcein (Calcein AM), is widely used for evaluation of cell proliferation and cytotoxicity. This assay is used in drug screening programs and in chemosensitivity testing. Intracellular esterases of viable cells convert calcein AM to green-fluorescent calcein of which signal corresponds to the number of viable cells in the culture.
(§3) We have been using the following cell lines: MV4-11 (acute myeloid leukemia, FLT3-ITD positive), MOLM-13 (acute myeloid leukemia, FLT3-ITD positive), THP-1 (acute myeloid leukemia, wt FLT3), U937 (monocytic leukemia, wt FLT3), EOL-1 (eosinophilic leukaemia, carrying the fusion FIP1L1-PDGFRA), H1703 (non-small cell lung carcinoma, PDGFRA amplification). […] K562 and MCF-7 cell lines were maintained in DMEM supplemented with 10% fetal bovine serum, penicilin (100 U/ml) and streptomycin (100 μg/ml). All cell lines were cultivated at 37° C. in 5% CO2. For cytotoxicity assays, cells were seeded in appropriate densities into 96 well plates and the next day tested compounds were added at various concentrations in triplicates. Three days after drug addition, Calcein AM solution (final concentration 1 μg/ml; Thermo Scientific, USA) was added into each well and incubated for 1 h.

[3] = test system: MV4-11 (acute myeloid leukemia, FLT3-ITD positive); assay: Calcein AM cytotoxicity assay; format: cell-based; settings: Homo sapiens, 72 h; MV4-11; Calcein AM, three days after drug addition; read-out: EC50 values (μM) MV4-11
From the text: as §2, §3

[4] = test system: Kasumi-1 (acute myeloid leukemia, KIT mutation Asn822Lys); assay: Calcein AM cytotoxicity assay; format: cell-based; settings: Homo sapiens, 72 h; Kasumi-1; Calcein AM, three days; read-out: EC50 values (μM) Kasumi-1
From the text: as §2
We have been using the following cell lines: MV4-11 (acute myeloid leukemia, FLT3-ITD positive), MOLM-13 (acute myeloid leukemia, FLT3-ITD positive), THP-1 (acute myeloid leukemia, wt FLT3), U937 (monocytic leukemia, wt FLT3), EOL-1 (eosinophilic leukaemia, carrying the fusion FIP1L1-PDGFRA), H1703 (non-small cell lung carcinoma, PDGFRA amplification). They were maintained in RPMI-1640 supplemented with 10% fetal bovine serum, penicillin (100 U/ml) and streptomycin (100 μg/ml). Kasumi-1 (acute myeloid leukemia, KIT mutation Asn822Lys) cells were cultivated in RPMI-1640 supplemented with 15% fetal bovine serum, penicillin (100 U/ml) and streptomycin (100 μg/ml). K562 and MCF-7 cell lines were maintained in DMEM supplemented with 10% fetal bovine serum, penicilin (100 U/ml) and streptomycin (100 μg/ml). All cell lines were cultivated at 37° C. in 5% CO2. For cytotoxicity assays, cells were seeded in appropriate densities into 96 well plates and the next day tested compounds were added at various concentrations in triplicates. Three days after drug addition, Calcein AM solution (final concentration 1 μg/ml; Thermo Scientific, USA) was added into each well and incubated for 1 h. After this incubation period, fluorescence of the live cells was measured at 485 nm/538 nm (ex/em) with a Fluoroskan Ascent microplate reader (Labsystems).

[5] = test system: K562; assay: Calcein AM cytotoxicity assay; format: cell-based; settings: Homo sapiens, 72 h; K562; Calcein AM, three days; read-out: EC50 values (μM) K562
From the text: as §2, §3

[6] = test system: THP-1 (acute myeloid leukemia, wt FLT3); assay: Calcein AM cytotoxicity assay; format: cell-based; settings: Homo sapiens, 72 h; THP-1; Calcein AM, three days; read-out: EC50 values (μM) THP-1
From the text: as §2, §3

[7] = test system: MCF-7; assay: Calcein AM cytotoxicity assay; format: cell-based; settings: Homo sapiens, MCF7, 72 h; MCF-7; Calcein AM, three days; read-out: EC50 values (μM) MCF-7
From the text: as §2, §3

[8] = test system: U937 (monocytic leukemia, wt FLT3); assay: Calcein AM cytotoxicity assay; format: cell-based; settings: Homo sapiens, U-937, 72 h; U937; Calcein AM, three days; read-out: EC50 values (μM) U937
From the text: as §2, §3

[9] = test system: MOLM-13 (acute myeloid leukemia, FLT3-ITD positive); assay: Calcein AM cytotoxicity assay; format: cell-based; settings: Homo sapiens, 72 h; MOLM-13; Calcein AM, three days; read-out: EC50 values (μM) MOLM-13
From the text: as §2, §3

[10] = target: T2, FLT3 WT (Homo sapiens, UniProt P36888); assay: Kinase inhibition assay with [γ-33P]ATP; format: biochemical; settings: AGLT substrate, 1 μM ATP
T2 construct: purchased ProQinase GmbH
T2 sequence (P36888 27-993): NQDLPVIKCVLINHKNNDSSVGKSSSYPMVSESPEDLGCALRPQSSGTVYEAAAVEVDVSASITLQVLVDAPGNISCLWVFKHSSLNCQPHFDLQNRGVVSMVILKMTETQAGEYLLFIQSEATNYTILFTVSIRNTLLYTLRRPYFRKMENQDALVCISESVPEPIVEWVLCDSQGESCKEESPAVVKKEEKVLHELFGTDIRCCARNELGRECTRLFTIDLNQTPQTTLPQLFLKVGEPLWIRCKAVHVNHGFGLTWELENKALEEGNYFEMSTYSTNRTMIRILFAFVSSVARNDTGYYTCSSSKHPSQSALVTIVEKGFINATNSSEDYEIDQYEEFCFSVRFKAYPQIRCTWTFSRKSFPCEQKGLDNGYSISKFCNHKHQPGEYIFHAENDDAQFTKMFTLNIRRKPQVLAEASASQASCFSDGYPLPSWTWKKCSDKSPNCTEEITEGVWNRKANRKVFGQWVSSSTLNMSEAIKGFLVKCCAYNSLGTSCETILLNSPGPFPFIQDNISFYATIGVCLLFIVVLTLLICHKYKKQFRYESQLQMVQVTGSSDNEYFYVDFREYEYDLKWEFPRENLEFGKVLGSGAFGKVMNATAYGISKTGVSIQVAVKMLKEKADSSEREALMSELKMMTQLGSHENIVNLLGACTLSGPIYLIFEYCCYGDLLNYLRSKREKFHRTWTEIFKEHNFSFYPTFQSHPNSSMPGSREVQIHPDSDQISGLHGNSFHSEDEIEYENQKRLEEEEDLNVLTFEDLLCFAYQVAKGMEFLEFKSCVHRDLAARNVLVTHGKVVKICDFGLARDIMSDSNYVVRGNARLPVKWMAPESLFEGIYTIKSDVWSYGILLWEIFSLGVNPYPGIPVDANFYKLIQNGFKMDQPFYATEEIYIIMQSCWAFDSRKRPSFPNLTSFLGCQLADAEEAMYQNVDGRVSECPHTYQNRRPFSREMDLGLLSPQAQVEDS
Procedure: as §1

c1cc(N2CCOCC2)ncc1Nc1nc(N2CCOCC2)nc2c1ncn2C1CCCC1 [Compound 46]
IC50 [1]: 0.951 µM | EC50 [2]: 0.377 µM | EC50 [3]: 0.02 µM

CN1CCN(c2nc(Nc3ccc(N4CCNCC4)nc3)c3ncn(C4CCCC4)c3n2)CC1 [Compound 58]
EC50 [4]: 0.492 µM | EC50 [5]: 0.695 µM | EC50 [6]: 1.13 µM | EC50 [2]: 0.056 µM | EC50 [7]: 0.44 µM | EC50 [8]: 0.794 µM | EC50 [3]: 0.017 µM | EC50 [9]: 0.017 µM

CCN1CCN(C(=O)c2ccc(Nc3nc(N4CCN(C)CC4)nc4c3ncn4C3CCCC3)cn2)CC1 [Compound 60]
IC50 [1]: 0.028 µM | IC50 [10]: 0.021 µM

NC(=O)CCNc1nc(Nc2ccc(C(=O)N3CCOCC3)nc2)c2ncn(C3CCCC3)c2n1 [Compound 149]
EC50 [4]: 1.01 µM | EC50 [5]: 1.17 µM | EC50 [7]: 0.688 µM | EC50 [3]: 0.007 µM

CCN1CCN(C(=O)c2ccc(Nc3nc(NCCCC(N)=O)nc4c3ncn4C3CCCC3)cn2)CC1 [Compound 155]
IC50 [1]: 2.6 µM | EC50 [5]: 5.17 µM | EC50 [7]: 4.71 µM | EC50 [3]: 0.164 µM

NC(=O)CCCCNc1nc(Nc2ccc(N3CC4(CNC4)C3)cc2)c2ncn(C3CCCC3)c2n1 [Compound 156]
IC50 [1]: 0.006 µM | EC50 [5]: 0.84 µM | EC50 [7]: 0.697 µM | EC50 [3]: 0.001 µM

CN(C)CCCNc1nc(Nc2ccc(N3CCN(C)CC3)cc2)c2ncn(C3CCCC3)c2n1 [Compound 174]
IC50 [1]: 16.4 µM

CN(C)CCCCNc1nc(Nc2ccc(C(=O)N3CCOCC3)cc2)c2ncn(C3CCCC3)c2n1 [Compound 182]
EC50 [4]: 1.68 µM | IC50 [1]: 0.005 µM | IC50 [10]: 0.013 µM | EC50 [5]: 4.21 µM | EC50 [6]: 1.5 µM | EC50 [2]: 0.04 µM | EC50 [7]: 1.59 µM | EC50 [8]: 0.631 µM | EC50 [3]: 0.002 µM | EC50 [9]: 0.017 µM

CN(C)CCCCNc1nc(Nc2ccc(N3CCOCC3)nc2)c2ncn(C3CCCC3)c2n1 [Compound 183]
EC50 [4]: 0.183 µM | EC50 [5]: 0.98 µM | EC50 [6]: 0.36 µM | EC50 [2]: 0.014 µM | EC50 [7]: 0.665 µM | EC50 [8]: 0.4 µM | EC50 [3]: 0.0005 µM | EC50 [9]: 0.005 µM

CN(C)CCCCNc1nc(Nc2ccc(C(=O)N3CCN(C)CC3)nc2)c2ncn(C3CCCC3)c2n1 [Compound 185]
IC50 [1]: 0.003 µM | IC50 [10]: 0.02 µM

CN1CC2(C1)CN(Cc1ccc(Nc3nc(NCC(O)CN)nc4c3ncn4C3CCCC3)cc1)C2 (stereo not shown) [Compound 199]
EC50 [4]: 0.227 µM | IC50 [1]: 0.005 µM | IC50 [10]: 0.013 µM | EC50 [5]: 1.36 µM | EC50 [6]: 0.925 µM | EC50 [7]: 0.67 µM | EC50 [8]: 1 µM | EC50 [3]: 0.011 µM | EC50 [9]: 0.043 µM

NC1CCC(Nc2nc(Nc3ccc(N4CCOCC4)nc3)c3ncn(C4CCCC4)c3n2)CC1 (stereo not shown) [Compound 269]
IC50 [1]: 0.008 µM | EC50 [5]: 1.35 µM | EC50 [2]: 0.01 µM | EC50 [7]: 0.96 µM | EC50 [8]: 1.49 µM | EC50 [3]: 0.004 µM

c1cc(Nc2nc(N3CCCCC3)nc3c2ncn3C2CCCC2)ccc1CN1CCOCC1 [Compound 271]
EC50 [4]: 2.16 µM | IC50 [1]: 1.98 µM | IC50 [10]: 0.073 µM | EC50 [5]: 8.28 µM | EC50 [6]: > 10 µM | EC50 [2]: 1.37 µM | EC50 [7]: 12.3 µM | EC50 [8]: 7.62 µM | EC50 [3]: 0.701 µM | EC50 [9]: 0.431 µM

OCCNc1nc(Nc2ccc(CN3CCOCC3)cc2)c2ncn(C3CCCC3)c2n1 [Compound 274]
IC50 [1]: 1.17 µM | EC50 [2]: 0.503 µM | EC50 [3]: 0.074 µM

OCCCNc1nc(Nc2ccc(CN3CCOCC3)cc2)c2ncn(C3CCCC3)c2n1 [Compound 275]
IC50 [1]: 3.01 µM | EC50 [2]: 0.73 µM | EC50 [3]: 0.066 µM

OCCCCNc1nc(Nc2ccc(CN3CCOCC3)cc2)c2ncn(C3CCCC3)c2n1 [Compound 276]
IC50 [1]: 1.8 µM | EC50 [3]: 0.029 µM
